One data set concerns the target T1, GIRK1/2(V-T) (UniProt P48542+P48549, V99T).
T1 construct: expressed in transfected cells; host or cells: Xenopus laevis oocytes (cRNA injection)
T1 sequence (P48549 1-501): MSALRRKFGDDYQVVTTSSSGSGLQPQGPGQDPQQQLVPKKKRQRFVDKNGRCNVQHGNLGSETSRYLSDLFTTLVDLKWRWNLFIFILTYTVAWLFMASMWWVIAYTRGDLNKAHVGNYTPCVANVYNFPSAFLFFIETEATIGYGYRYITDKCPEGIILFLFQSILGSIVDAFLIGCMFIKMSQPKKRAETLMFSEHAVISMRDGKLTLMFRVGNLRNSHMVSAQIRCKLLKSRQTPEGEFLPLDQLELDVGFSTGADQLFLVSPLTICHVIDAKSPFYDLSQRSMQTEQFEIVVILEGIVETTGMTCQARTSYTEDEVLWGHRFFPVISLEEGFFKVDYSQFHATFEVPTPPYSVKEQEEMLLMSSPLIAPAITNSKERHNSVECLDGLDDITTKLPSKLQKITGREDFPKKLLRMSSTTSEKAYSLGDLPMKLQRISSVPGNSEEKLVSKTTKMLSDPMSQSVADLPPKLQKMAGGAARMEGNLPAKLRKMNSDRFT
T1 sequence (P48542 1-425 V99T): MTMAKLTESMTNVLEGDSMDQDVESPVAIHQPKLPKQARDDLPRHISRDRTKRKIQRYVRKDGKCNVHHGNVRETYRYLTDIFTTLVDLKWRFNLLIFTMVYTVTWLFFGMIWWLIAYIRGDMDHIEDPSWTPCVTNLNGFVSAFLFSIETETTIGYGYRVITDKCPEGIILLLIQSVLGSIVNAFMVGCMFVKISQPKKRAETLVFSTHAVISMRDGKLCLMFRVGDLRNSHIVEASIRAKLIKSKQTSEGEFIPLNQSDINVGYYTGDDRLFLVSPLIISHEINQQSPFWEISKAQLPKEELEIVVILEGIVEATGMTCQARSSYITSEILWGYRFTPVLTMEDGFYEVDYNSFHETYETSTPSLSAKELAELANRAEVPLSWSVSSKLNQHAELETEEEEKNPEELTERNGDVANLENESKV
The data set can be described thus: TEVC in Xenopus oocytes, single mutant GIRK1/2(V-T). Type of data set: cell-based, human GIRK1, mouse GIRK2. The conditions noted are these: GIRK1/2(V-T) single mutant. An excerpt: (§1) Molecular biology: For Xenopus oocyte expression, human GIRK1 and human GIRK4 cDNAs were subcloned into pGEMHE. For mammalian expression, human GIRK1 and human GIRK4 cDNAs were subcloned into pcDNA3 and pcDNA3.1/V5-His B, respectively (Invitrogen). Mouse GIRK2 cDNA was subcloned in the dual-function vector, pXoom. Point mutations were introduced using a standard Pfu-based mutagenesis technique according to the QuikChange protocol (Agilent). Mutations were verified by sequencing.
(§2) Electrophysiology of oocytes: Whole-oocyte currents were measured by conventional two-electrode voltage clamp (TEVC) with a GeneClamp 500 amplifier (Axon Instruments). Agarose cushion microelectrodes were filled with 1.5% (w/v) agarose in 3 M KCl and were used with resistances between 0.1 and 1.5 megaohms. […] Barium-sensitive basal currents from both groups, 1) Vehicle, 2) single concentration at 10 μM and 3) multiple concentrations of ML297 or GAT compounds in the presence of HK solution, were assessed at −80 mV using TEVC. Barium-sensitive currents were normalized to average basal current in the vehicle solutions. The HK solution contained the following: 96 mM KCl, 1 mM NaCl, 1 mM MgCl2, 5 mM KOH/HEPES, pH 7.4. The barium solution consisted of HK+10 mM BaCl2. Five to ten oocytes from the same batch (same frog) were recorded for each group, and the experiments were repeated in at least four batches. Data acquisition and analysis were carried out using pClamp9 (Molecular Devices) and OriginPro (Microcal) software.
(§3) To test these computational predictions, the inventors mutated each or both of the two M1 key wild-type GIRK4 subunit residues to the corresponding GIRK2 residues (GIRK4-V92I, GIRK4-T94V, GIRK4-V92I/T94V or GIRK4-dm) and vice-versa the GIRK2 residues to the corresponding GIRK4 ones (GIRK2-I97V, GIRK2-V99T, GIRK2-I97V/V99T or GIRK2-dm) (FIG. 35). […]

A further data set concerns the target T2, GIRK1/2(I-V) (UniProt P48542+P48549, I97V).
T2 construct: expressed in transfected cells; host or cells: Xenopus laevis oocytes (cRNA injection)
T2 sequence (P48549 1-501): T1 sequence (P48549 1-501)
T2 sequence (P48542 1-425 I97V): T1 sequence (P48542 1-425 V99T) with I97V, T99V
Kind of data set: TEVC in Xenopus oocytes, single mutant GIRK1/2(I-V). It is filed as cell-based, human GIRK1, mouse GIRK2. The conditions noted are these: GIRK1/2(I-V) single mutant.
From the text: as §1, §2, §3

A further data set can be described thus: open-field (OF) test. Type of data set: in vivo, rat. The text has this:
Open-field (OF) test: The OF apparatus is a plexiglass open-topped chamber (91.5×91.5×30.5 cm), filmed by a ceiling-mounted CCD camera and illuminated by a 25 W red light bulb placed 2 meters above the center of the chamber. […] The automated tracking system ANY-MAZE (ANY-MAZE, Stoelting Co., Wood Dale, IL, USA) was utilized to measure total distance traveled and mean speed.

For data set [1], the target named is human ERG (hERG) channels (Homo sapiens, UniProt Q12809). The arrangement: expressed in transfected cells; host or cells: Xenopus oocytes. As to conditions: published; cited from earlier work.
The mark [2] stands for this setting: read-out: EMAX, % of the control GIRK1/2.
The mark [3] stands for this setting: 30 and 60 mg/kg, 30 min after treatment.

Structures are written as SMILES. Numbering of substitutions follows the chain as printed.

human ERG (hERG) channels, sequence (Q12809 whole entry): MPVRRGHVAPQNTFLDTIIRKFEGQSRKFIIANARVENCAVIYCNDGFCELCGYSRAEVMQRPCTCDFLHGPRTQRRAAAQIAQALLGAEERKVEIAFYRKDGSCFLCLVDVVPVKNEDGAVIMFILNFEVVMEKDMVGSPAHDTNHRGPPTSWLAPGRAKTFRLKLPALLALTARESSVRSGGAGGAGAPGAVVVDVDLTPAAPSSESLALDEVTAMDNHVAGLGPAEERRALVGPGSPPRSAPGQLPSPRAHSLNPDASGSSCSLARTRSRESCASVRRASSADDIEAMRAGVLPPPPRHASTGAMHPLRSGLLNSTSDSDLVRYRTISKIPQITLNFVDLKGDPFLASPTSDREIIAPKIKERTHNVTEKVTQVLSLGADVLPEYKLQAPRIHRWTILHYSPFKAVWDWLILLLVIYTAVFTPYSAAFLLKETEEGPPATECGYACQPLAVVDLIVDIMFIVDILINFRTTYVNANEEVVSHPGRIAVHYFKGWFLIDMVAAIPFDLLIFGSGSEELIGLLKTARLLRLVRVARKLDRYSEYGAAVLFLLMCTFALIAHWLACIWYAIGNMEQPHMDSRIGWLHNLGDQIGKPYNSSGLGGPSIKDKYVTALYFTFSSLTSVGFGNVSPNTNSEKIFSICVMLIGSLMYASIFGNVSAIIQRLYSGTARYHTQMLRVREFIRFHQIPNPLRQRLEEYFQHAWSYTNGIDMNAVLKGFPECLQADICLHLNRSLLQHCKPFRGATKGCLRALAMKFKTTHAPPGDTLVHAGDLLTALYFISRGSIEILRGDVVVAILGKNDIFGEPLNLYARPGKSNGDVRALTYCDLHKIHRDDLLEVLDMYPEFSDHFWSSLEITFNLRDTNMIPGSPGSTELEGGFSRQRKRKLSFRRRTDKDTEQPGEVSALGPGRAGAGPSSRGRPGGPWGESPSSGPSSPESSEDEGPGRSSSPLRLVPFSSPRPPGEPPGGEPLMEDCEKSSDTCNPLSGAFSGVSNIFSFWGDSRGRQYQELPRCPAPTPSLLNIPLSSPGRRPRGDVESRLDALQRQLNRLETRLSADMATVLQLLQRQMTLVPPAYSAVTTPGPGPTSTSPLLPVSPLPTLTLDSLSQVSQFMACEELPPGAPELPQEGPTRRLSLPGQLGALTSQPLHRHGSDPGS

For `Cc1cc(NC(=O)Nc2ccc(Br)s2)n(-c2ccccc2)n1` [GAT1508, 1-(5-bromothiophen-2-yl)-3-(3-methyl-1-phenyl-1H-pyrazol-5-yl)urea], at GIRK1/2(V-T), a half-maximal response (EC50) required 530 ± 70 nM and the EMAX turned out to be 1.92±0.03. The Emax at GIRK1/2(V-T) (setting [2]) came to 65%. Moreover, on GIRK1/2(I-V), the response was half-maximal at 500 ± 110 nM (EC50) and the EMAX came to 1.61±0.03. Moreover, on GIRK1/2(I-V) (setting [2]), the Emax stood at 42%. Also, in “open-field (OF) test” (10 and 30 mg/kg i.p.), the “mean speed in the OF test (in words)” value is “comparable to the vehicle group” and the “total distance travelled in the OF test (in words)” value is “comparable to the vehicle group”.

In the case of `Cc1cc(NC(=O)Nc2ccc(F)c(F)c2)n(-c2ccccc2)n1` [ML297, reference compound], in the data set “open-field (OF) test” (setting [3]), the “mean speed in the open arena (in words)” value is “comparable to the vehicle group” and the “total distance traveled in the open arena (in words)” value was “comparable to the vehicle group”. Besides, in data set [1], the IC50 (commonly the concentration at which inhibition is half-maximal) was about 10000 nM.

These data come from patent US12351574B2, “Selective ligands for modulation of GIRK channels” (Northeastern University, priority 2018, dated 2025).
